Six compounds from ChEMBL document CHEMBL1667861, “Kinetic and docking studies of phenol-based inhibitors of carbonic anhydrase isoforms I, II, IX and XII evidence a new binding mode within the enzyme active site” (Bioorg Med Chem, 2011) can be followed below.

The target of experiment [1] is Carbonic anhydrase 2 (Homo sapiens, UniProt P00918). The experiment can be described thus: Inhibition of human carbonic anhydrase 2 preincubated for 15 mins by CO2 hydration stopped-flow assay.
The target of experiment [2] is Carbonic anhydrase 1 (Homo sapiens, UniProt P00915). Put plainly: Inhibition of human carbonic anhydrase 1 preincubated for 15 mins by CO2 hydration stopped-flow assay.
Experiment [3] addresses Carbonic anhydrase 9 (Homo sapiens, UniProt Q16790). The experiment can be described thus: Inhibition of human carbonic anhydrase 9 preincubated for 15 mins by CO2 hydration stopped-flow assay.
Experiment [4] has as its target Carbonic anhydrase 12 (Homo sapiens, UniProt O43570).

Chain of Carbonic anhydrase 12 (O43570 whole entry): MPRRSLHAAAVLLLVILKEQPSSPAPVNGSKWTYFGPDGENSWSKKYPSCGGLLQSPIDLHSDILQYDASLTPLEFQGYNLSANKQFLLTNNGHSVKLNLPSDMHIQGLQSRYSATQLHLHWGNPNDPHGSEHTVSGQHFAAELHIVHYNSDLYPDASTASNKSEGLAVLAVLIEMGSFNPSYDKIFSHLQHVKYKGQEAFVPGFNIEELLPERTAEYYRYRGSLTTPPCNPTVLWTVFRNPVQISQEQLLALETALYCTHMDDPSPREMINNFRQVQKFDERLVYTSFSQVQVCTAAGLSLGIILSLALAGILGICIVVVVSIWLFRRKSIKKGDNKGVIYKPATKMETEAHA
Chain of Carbonic anhydrase 1 (P00915 whole entry): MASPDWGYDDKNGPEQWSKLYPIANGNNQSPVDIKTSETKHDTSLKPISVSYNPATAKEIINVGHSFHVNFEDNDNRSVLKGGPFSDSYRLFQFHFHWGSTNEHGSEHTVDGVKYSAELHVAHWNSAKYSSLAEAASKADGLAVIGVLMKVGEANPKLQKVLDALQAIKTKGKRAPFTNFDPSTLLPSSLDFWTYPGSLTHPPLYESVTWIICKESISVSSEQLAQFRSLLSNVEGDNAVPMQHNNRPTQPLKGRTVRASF

For orientation: Ki means a dissociation constant, usually derived from enzyme kinetics or from competition with a known ligand. Compound `COc1ccc(OC)cc1` [1,4-DIMETHOXYBENZENE] returned a Ki in experiment [1] of 3.35 µM.
Take `COc1ccc(C(=O)O)cc1OC` [VERATRIC ACID]: the Ki in experiment [2] was found to be 6.83 µM; in experiment [1] it was 6.18 µM; in experiment [3] it was 8.25 µM; in experiment [4] it was 6.7 µM.
The corresponding values for `O=C(O)c1cccc(O)c1` [3-HYDROXYBENZOIC ACID] are 2.37 µM, 0.6 µM, 4.53 µM and 3.53 µM.
Regarding `O=C(O)c1ccc(O)c(O)c1` [PROTOCATECHUIC ACID], the Ki in experiment [2] was 1.08 µM; in experiment [3], 4.45 µM; in experiment [4] it was 4.09 µM.
On to `O=C(O)c1cc(O)cc(O)c1` [3,5-DIHYDROXYBENZOIC ACID], for which the results for the Ki in experiment [2], in experiment [3] and in experiment [4] were 0.55 µM, 4.41 µM and 3.67 µM, respectively.
Turning to `COc1ccc(OC)c(OC)c1` [1,2,4-TRIMETHOXYBENZENE], affinity in experiment [3] was put at a Ki of 4.06 µM. In other words, the single-digit micromolar range.
